Assay results published in article PMC5841296, “Inhibition of the Hexosamine Biosynthetic Pathway by targeting PGM3 causes breast cancer growth arrest and apoptosis” (Cell Death & Disease, 2018).

How the values were obtained:
[1] = target: T1, PGM3 (N-Acetylglucosamine-phosphate Mutase) (Homo sapiens, UniProt O95394); assay: CETSA, Western blot (cell extract); conditions: 30 min RT incubation of extract, heated 3 min at 49-70 °C or isothermal at 58 °C; prodrug tested, possible conversion to FR051 in lysate not excluded
T1 sequence (O95394 1-542): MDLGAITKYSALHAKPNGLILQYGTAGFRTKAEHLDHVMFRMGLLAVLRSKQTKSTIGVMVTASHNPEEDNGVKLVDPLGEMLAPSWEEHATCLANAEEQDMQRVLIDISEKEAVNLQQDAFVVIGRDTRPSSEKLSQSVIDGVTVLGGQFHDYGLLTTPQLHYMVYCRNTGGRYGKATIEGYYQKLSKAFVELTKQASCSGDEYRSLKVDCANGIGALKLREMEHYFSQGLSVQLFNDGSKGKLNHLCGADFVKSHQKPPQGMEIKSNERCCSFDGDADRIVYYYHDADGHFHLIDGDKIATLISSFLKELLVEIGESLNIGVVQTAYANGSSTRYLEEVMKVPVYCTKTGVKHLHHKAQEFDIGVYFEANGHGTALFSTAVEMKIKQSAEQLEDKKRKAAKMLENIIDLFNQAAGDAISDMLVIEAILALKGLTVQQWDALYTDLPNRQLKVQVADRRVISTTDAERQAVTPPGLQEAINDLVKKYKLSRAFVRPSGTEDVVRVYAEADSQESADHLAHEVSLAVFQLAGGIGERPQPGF

[2] = target: T1, PGM3 (N-Acetylglucosamine-phosphate Mutase); assay: ITDRF-CETSA, Western blot (cell extract); type: biochemical; parameters: endogenous full-length protein in MDA-MB-231 soluble extract (freeze-thaw), detected by Western blot; conditions: 30 min RT incubation of extract, heated 3 min at 58 °C; natural substrate

| Compound | CETSA [1] | ITDRF CETSA [2] |
| --- | --- | --- |
| CC(=O)OC[C@H]1O[C@@H]2OC(C)=N[C@@H]2[C@@H](OC(C)=O)[C@@H]1OC(C)=O [FR054, 2-methyl-(3,4,6-tri-O-acetyl-1,2-dideoxy-α-D-glucopyrano)-[2,1-d]-2-oxazoline] | FR054 markedly increased the accumulation of PGM3 in the soluble fraction | – |
| CC(=O)N[C@H]1C(O)O[C@H](COP(=O)(O)O)[C@@H](O)[C@@H]1O (some centres unmarked) [GlcNAc-6-P] | – | more potent binding than the natural substrate GlcNAc-6-P |
